One series has as its system MCF-7 cells. The series can be described thus: Clonogenic survival assay. In kind it is cell-based, human. As to the method: (§1) Fig. 6 Selective inhibition of PARG by xanthine derivative JA2131. a Clonogenic survival assays of PC3, MDA-MB-231, and MCF-7 cells treated with PARGi. Cells were treated with either DMSO or 10 µM JA2131 for 2 h, irradiated with 3 Gy (MDA-MB-231 and MCF-7), 7 Gy (PC3) IR and grown for ~2 weeks, then colonies were fixed with methanol and stained with crystal violet. The results of three independent experiments are shown. Error bars = the standard error of the mean (SEM). b dose-response of JA2131 in MDA-MB-231 cells with and without IR. Cells were treated with designated concentrations of JA2131 for 2 h and then either left untreated or exposed to 3 Gy IR and allowed to recover for 1 h before lysis. Total protein was immunoblotted with anti-PAR antibody (upper panel), stripped and reprobed with anti-PCNA as a loading control. c MDA-MB-231 cells with stable scrambled shRNA (WT) or stable PARG shRNA, knockdown (KD), were treated with 5 μM JA2131 for 2 h, lysed and then total lysates were immunoblotted for anti-PAR (upper panel) followed by anti-PARG (upper middle panel), anti-PARP1 (lower middle panel) and anti-actin (bottom panel) antibody. […] Stable cells with scramble shRNA (control) and shPARG (PARG-KD) cells were treated with an increasing concentration of JA2131 for growth inhibitory IC50 determination. The data was normalized against 100% survival at the lowest inhibitor concentration. Error bars show the percent coefficient of variation. Equivalent concentrations of DMSO were used as a negative control. e The cytotoxicity of JA2131 along with PDD, Veliparib and Doxorubicin against MRC-5 cells. Error bars show the percent coefficient of variation. f CETSA for in-cell JA2131 target engagement. Normalized anti-PARG western blot intensities of three independent experiments were fitted as above and the estimated aggregation temperature (Tagg) is shown in the tabulated insert. Source Data are provided as a Source Data file.
(§2) PC3, MDA-MB-231 cells were maintained in RPMI 1640, MCF-7 cells in Eagle’s Minimum Essential Medium (EMEM), MRC-5 cells in Eagle’s Minimum Essential Medium and Hela and U2OS cells in Dulbecco’s modified Eagle’s high glucose medium (DMEM) supplemented with 10% (vol/vol) fetal bovine serum (FBS) and 1% antibiotic/antimycotic (Lonza) in a humidified incubator with 10% CO2. All cell lines were purchased from ATCC and regularly checked for mycoplasma and cell authentication. SUM 149PT cells were cultured in F-12 Hams (Gibco) supplemented with 5% fetal bovine serum, insulin, and hydrocortisone. Colony formation assays were carried out in 6-well plates, 500 cells were used per well and following designated treatment, and colonies were grown for 2 weeks. Cells were fixed with methanol (100%), stained with crystal violet and analyzed using a GelCount instrument (Oxford Optronix Ltd). Crystal Violet C6158 was purchased from Sigma. PARG knockdown cells were generated by infecting MDA-MB-231 cells with shPARG lentiviral particles (sc-106355-V, Santa Cruz Biotechnology), which contain a pool of three shRNA plasmids. After 24 h infection, 3 µg/ml puromycin (Invitrogen) was added and antibiotic-resistant cells were further expanded and used for experimentation. Sequence-1; hairpin sequence: […], sense: […]tt, Antisense: […]tt. Sequence-2; hairpin sequence, […]-[…], sense: […]tt, antisense: […]tt. Sequence-3; hairpin sequence: […]-[…], sense: […]tt, antisense: […]-GGUUUCCtt. Control cells were generated using the same process except that scramble lentiviral particles with scrambled sequences were used (sc-108080).
(§3) Supplementary Fig. 8: Clonogenic survival of cells in the presence of PARGi and PARPi (a)
(§4) Clonogenic survival of PC3 cells in response to indicated compounds. ( b) Clonogenic survival of
(§5) MDA-MB-231 cells in response to i ndicated compounds. (c) Clonogenic survival of MCF -7 cells
(§6) in response to indicated compounds. […]

Series [1] relates to PC3 cells. The series can be described thus: Clonogenic survival assay. In kind it is cell-based, human. The conditions noted are these: PC3. As to the method: as §1, §2, §3, §4, §5, §6
The test system of the next series is A172 glioblastoma cells. Put plainly: Sulforhodamine B (SRB) cytotoxicity assay. As to the method: (§7) Normalized % viabilities are plotted against log concentration. Error bars show the percent coefficient of variation. […] Mann-Whitney test was used to generate the p-value. The DNA spread assay is the representation of two independently repeated experiments. Source Data are provided as a Source Data file.
(§8) Cells were plated in 96-well plates, treated as designated in reduced 5% FBS and fixed with trichloroacetic acid after 72 h, as previously described by[43]. […] Colorimetric or fluorescence analysis was performed in a FlexStation 3, using SoftMax Pro 7.0, Molecular Devices. Normalized graphs were generated with Prism 8 software, non-linear 4-parameter data fitting was performed for IC50 calculation.
(In general: In SRB staining, fixed cells bind dye roughly in proportion to their protein.)

Series [2] has as its system PC3 cells. Put plainly: Sulforhodamine B (SRB) cytotoxicity assay. The conditions noted are these: 72 h, without IR.
Series [3] can be described thus: Sulforhodamine B (SRB) cytotoxicity assay. In kind it is cell-based, human. Conditions: human, MRC-5 cells. As to the method: as §1
Series [4] is described as follows: Sulforhodamine B (SRB) cytotoxicity assay. The conditions noted are these: human, A172 glioblastoma cells. As to the method:
as §7, §8

Values joined by “and” are separate entries in the source; they are usually repeats but may differ in a detail not shown here. Identical values can stand only once.

With `Cn1c(=S)c2[nH]c(SCCN3CCOCC3)nc2n(C)c1=O` [JA-2131], the “colony count (clonogenic survival, raw replicate data, Supplementary Figure 8)” value is 184 and 217 and 183 and 124 and 178 and 153 with MCF-7 cells (Experiment-1, replicates 1-6); 141 and 190 (2×) and 218 and 209 and 269 in the series on MCF-7 cells (Experiment-2, replicates 1-6); 154 and 188 and 126 and 153 and 169 and 142 in the series on MCF-7 cells (Experiment-3, replicates 1-6); 191 and 210 and 213 and 170 and 222 and 223 with PC3 cells [1] (Experiment-1, replicates 1-6); 174 and 164 and 144 and 181 and 152 and 125 in the series with PC3 cells [1] (Experiment-2, replicates 1-6); 164 and 128 and 108 and 141 and 148 and 123 in the series with PC3 cells [1] (Experiment-3, replicates 1-6).
On to `[NH2][Pt]1([NH2])[O]CC(=O)[O]1` [Nedaplatin], for which the IC50 in the series on A172 glioblastoma cells (72 h) stood at 67.6 ± 46.5 µM; in the series with PC3 cells [2], 4.98 ± 0.2 µM. The Viability amounted to 99.176% in the series with A172 glioblastoma cells (72 h, log [concentration] μM 0.291); 95.055% in the series with A172 glioblastoma cells (72 h, log [concentration] μM 0.592); 88.736% with A172 glioblastoma cells (72 h, log [concentration] μM 0.893); 69.505% in the series with A172 glioblastoma cells (72 h, log [concentration] μM 1.495); 60.165% with A172 glioblastoma cells (72 h, log [concentration] μM 1.796); 45.055% with A172 glioblastoma cells (72 h, log [concentration] μM 2.097). Moreover, the Viability is recorded as 21.154% with A172 glioblastoma cells (72 h, log [concentration] μM 2.398); 18.681% in the series with A172 glioblastoma cells (72 h, log [concentration] μM 2.699); 18.681% in the series with A172 glioblastoma cells (72 h, log [concentration] μM 3); 107.967% in the series with A172 glioblastoma cells (72 h, log [concentration] μM -0.01); 100% in the series on A172 glioblastoma cells (72 h, log [concentration] μM -0.312); 99.072% with PC3 cells [2] (log [concentration] μM 0.291). The Viability in the series with PC3 cells [2] (log [concentration] μM 0.592) is recorded as 89.849%; in the series on PC3 cells [2] (log [concentration] μM 0.893), 9.664%; in the series with PC3 cells [2] (log [concentration] μM 1.194), 8.121%; with PC3 cells [2] (log [concentration] μM 1.495), 6.671%; with PC3 cells [2] (log [concentration] μM 1.796) it was 7.309%; in the series on PC3 cells [2] (log [concentration] μM -0.01), 100%.
As to `C[C@]1(c2nc3c(C(N)=O)cccc3[nH]2)CCCN1` [Veliparib], the viability at 72 h, 1.95 µM in series [3] (log [concentration] μM 0.29) is 90.5%. The viability at 72 h, 3.89 µM in series [3] (log [concentration] μM 0.59) is 94.5%. In addition, in series [3] (log [concentration] μM 0.89), the viability at 72 h, 7.76 µM is 86%. Further, the viability at 72 h, 15.5 µM in series [3] (log [concentration] μM 1.19) is 85.3%. Further, the viability at 72 h, 30.9 µM in series [3] (log [concentration] μM 1.49) is 89%. The viability at 72 h, 63.1 µM in series [3] (log [concentration] μM 1.8) amounted to 77.6%. The viability at 72 h, 126 µM in series [3] (log [concentration] μM 2.1) is 70.3%. The viability at 72 h, 251 µM in series [3] (log [concentration] μM 2.4) amounted to 58.2%. The viability at 72 h, 501 µM in series [3] (log [concentration] μM 2.7) is 34.2%. In addition, the viability at 72 h, 0.977 µM in series [3] (log [concentration] μM -0.01) amounted to 89.2%. Besides, the viability at 72 h, 0.49 µM in series [3] (log [concentration] μM -0.31) came to 90.8%. Also, the viability at 72 h, 0.245 µM in series [3] (log [concentration] μM -0.61) turned out to be 100%. Further, in series [4], the viability at 72 h, 0.244 µM was determined as 100%; the viability at 72 h, 0.488 µM was 104%; the viability at 72 h, 0.977 µM turned out to be 102%; the viability at 72 h, 1.95 µM is 106%. Further, in series [4], the viability at 72 h, 3.91 µM is 101%; the viability at 72 h, 7.82 µM was 104%; the viability at 72 h, 15.6 µM turned out to be 98.6%; the viability at 72 h, 31.3 µM worked out at 94.1%. For the same compound, in series [4], the viability at 72 h, 62.5 µM was 88.5%; the viability at 72 h, 125 µM is 69.1%; the viability at 72 h, 250 µM was 27.2%; the viability at 72 h, 500 µM came out at 15.4%. This compound also came in with a half-inhibitory concentration (IC50) with A172 glioblastoma cells (Homo sapiens, A 172, 72 h) of 153 ± 44.2 µM.

The term IC50 denotes the point on the concentration scale where inhibition reaches its midpoint. In general, viability refers to a read-out of living cells in per cent, often relative to untreated cells.
